# Activity calls are given as the source filed them. The calls are words filed in the database; no cut-off is given here.
# Experiments:
# [1] = Half life in rhesus monkey at 0.5 mg/kg, iv; format: ADME, organism-based, Macaca mulatta; set-up: dose 0.5 mg/kg, route intravenous; details: in vivo
# [2] = Plasma clearance in rat at 1 mg/kg, iv; format: ADME, organism-based; set-up: dose 1 mg/kg, route intravenous
# Mus musculus [3] = assay: Antiobesity activity in eDIO mouse assessed as reduction of body weight at 25 mg/kg, sc relative to control; format: functional; set-up: scale not given: the % may be the effect or the level left; details: route subcutaneous
# [4] = Binding affinity to rhesus monkey BRS-3; set-up: species or system Macaca mulatta
# Mus musculus [5] = species on record: Mus musculus; assay: Antiobesity activity in BRS3 deficient mouse assessed as reduction of food intake; format: functional, organism-based
# [6] = molecular target: T1, Bombesin receptor subtype-3 (Rattus norvegicus, UniProt Q8K418); assay: Agonist activity at rat BRS-3 expressed in HEK293AEQ cells assessed as induction of intracellular calcium mobilization by aequorin bioluminescence assay; format: functional, cell-based
# T1 sequence (Q8K418 whole entry): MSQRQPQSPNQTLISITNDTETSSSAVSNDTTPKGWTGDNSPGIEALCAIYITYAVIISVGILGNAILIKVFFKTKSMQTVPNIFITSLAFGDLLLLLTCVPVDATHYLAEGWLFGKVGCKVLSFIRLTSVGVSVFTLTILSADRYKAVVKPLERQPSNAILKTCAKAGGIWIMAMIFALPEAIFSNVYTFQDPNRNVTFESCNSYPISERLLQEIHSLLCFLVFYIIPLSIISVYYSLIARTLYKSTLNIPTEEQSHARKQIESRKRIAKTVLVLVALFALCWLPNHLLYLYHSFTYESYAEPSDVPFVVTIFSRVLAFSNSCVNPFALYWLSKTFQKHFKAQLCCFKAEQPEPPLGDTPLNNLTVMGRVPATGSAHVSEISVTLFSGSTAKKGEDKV
# [7] = Half life in rat at 1 mg/kg, iv; format: ADME, organism-based; set-up: dose 1 mg/kg, route intravenous; details: in vivo
# Mus musculus [8] = species on record: Mus musculus; assay: Antiobesity activity in wild type mouse assessed as reduction of food intake; format: functional, organism-based
# [9] = Agonist activity at rhesus monkey BRS-3 expressed in HEK293AEQ cells assessed as induction of intracellular calcium mobilization by aequorin bioluminescence assay; format: functional, cell-based; details: Macaca mulatta
# [10] = Volume of distribution at steady state in dog at 0.5 mg/kg, iv; format: ADME, organism-based, Canis lupus familiaris; set-up: dose 0.5 mg/kg, route intravenous; details: in vivo, read-out: Vdss
# [11] = molecular target: Voltage-gated inwardly rectifying potassium channel KCNH2 (Homo sapiens, UniProt Q12809); assay: Binding affinity to human ERG
# [12] = Oral bioavailability in rhesus monkey at 1 mg/kg; format: ADME, organism-based, Macaca mulatta; details: in vivo
# [13] = molecular target: T1, Bombesin receptor subtype-3; assay: Displacement of [3H]Bag-3 from rat BRS-3
# [14] = Binding affinity to dog BRS-3; set-up: species or system Canis lupus familiaris
# [15] = Oral bioavailability in mouse at 2 mg/kg, po; format: ADME, organism-based; details: in vivo
# [16] = molecular target: T2, Bombesin receptor subtype-3 (Mus musculus, UniProt O54798); assay: Agonist activity at mouse BRS-3 expressed in HEK293AEQ cells assessed as induction of intracellular calcium mobilization by aequorin bioluminescence assay; format: functional, cell-based
# T2 sequence (O54798 whole entry): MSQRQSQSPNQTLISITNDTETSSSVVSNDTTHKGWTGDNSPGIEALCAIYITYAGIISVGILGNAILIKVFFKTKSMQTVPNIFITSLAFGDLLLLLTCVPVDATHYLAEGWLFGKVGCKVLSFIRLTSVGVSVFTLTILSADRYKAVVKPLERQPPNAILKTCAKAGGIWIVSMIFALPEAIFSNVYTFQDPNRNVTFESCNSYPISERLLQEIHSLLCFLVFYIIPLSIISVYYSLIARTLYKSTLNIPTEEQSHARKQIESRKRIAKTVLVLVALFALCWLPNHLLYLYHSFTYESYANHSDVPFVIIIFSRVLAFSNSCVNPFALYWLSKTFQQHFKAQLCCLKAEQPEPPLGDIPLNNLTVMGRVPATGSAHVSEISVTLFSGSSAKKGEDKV
# [17] = Volume of distribution at steady state in mouse at 1 mg/kg, iv; format: ADME, organism-based; set-up: dose 1 mg/kg, route intravenous; details: in vivo, read-out: Vdss
# [18] = Plasma clearance in dog at 0.5 mg/kg, iv; format: ADME, organism-based, Canis lupus familiaris; set-up: dose 0.5 mg/kg, route intravenous
# Mus musculus [19] = species on record: Mus musculus; assay: Antiobesity activity in wild type mouse assessed as increase of fasting metabolic rate; format: functional, organism-based
# [20] = Volume of distribution at steady state in rhesus monkey at 0.5 mg/kg, iv; format: ADME, organism-based, Macaca mulatta; set-up: dose 0.5 mg/kg, route intravenous; details: in vivo, read-out: Vdss
# [21] = Oral bioavailability in rat at 2 mg/kg; format: ADME, organism-based; details: in vivo
# [22] = Agonist activity at rhesus monkey BRS-3 expressed in HEK293AEQ cells assessed as induction of intracellular calcium mobilization by aequorin bioluminescence assay relative to dY peptide; details: Macaca mulatta
# [23] = Plasma clearance in rhesus monkey at 0.5 mg/kg, iv; format: ADME, organism-based, Macaca mulatta; set-up: dose 0.5 mg/kg, route intravenous
# [24] = Volume of distribution at steady state in rat at 1 mg/kg, iv; format: ADME, organism-based; set-up: dose 1 mg/kg, route intravenous; details: in vivo, read-out: Vdss
# [25] = Agonist activity at dog BRS-3 expressed in HEK293AEQ cells assessed as induction of intracellular calcium mobilization by aequorin bioluminescence assay relative to dY peptide; details: Canis lupus familiaris
# Mus musculus [26] = species on record: Mus musculus; assay: Antiobesity activity in BRS3 deficient mouse assessed as increase of fasting metabolic rate; format: functional, organism-based
# [27] = molecular target: T3, Bombesin receptor subtype-3 (Homo sapiens, UniProt P32247); assay: Displacement of [125I]-[D-Tyr6,beta-Ala11,Phe13,Nle14]-Bombesin (6-14) from human BRS-3
# T3 sequence (P32247 whole entry): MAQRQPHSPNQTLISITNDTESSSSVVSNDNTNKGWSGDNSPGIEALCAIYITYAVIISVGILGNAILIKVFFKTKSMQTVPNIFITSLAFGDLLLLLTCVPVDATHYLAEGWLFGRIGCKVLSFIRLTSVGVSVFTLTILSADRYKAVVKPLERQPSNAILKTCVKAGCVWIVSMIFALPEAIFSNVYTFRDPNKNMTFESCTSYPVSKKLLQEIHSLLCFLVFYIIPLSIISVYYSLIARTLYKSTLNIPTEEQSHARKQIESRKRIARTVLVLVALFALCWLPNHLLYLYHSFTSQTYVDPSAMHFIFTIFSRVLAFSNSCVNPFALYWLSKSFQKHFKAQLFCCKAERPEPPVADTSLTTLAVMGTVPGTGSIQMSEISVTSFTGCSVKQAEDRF
# [28] = Oral bioavailability in dog at 1 mg/kg; format: ADME, organism-based, Canis lupus familiaris; details: in vivo
# [29] = Faction unbound in human plasma at 1 uM; format: ADME, cell-free
# [30] = molecular target: T3, Bombesin receptor subtype-3; assay: Agonist activity at human BRS-3 expressed in HEK293AEQ cells assessed as induction of intracellular calcium mobilization by aequorin bioluminescence assay; format: functional, cell-based
# Mus musculus [31] = assay: Antiobesity activity in eDIO mouse assessed as reduction of body weight at 25 mg/kg, sc after 14 days; format: functional, organism-based; set-up: dose 25 mg/kg
# [32] = Agonist activity at dog BRS-3 expressed in HEK293AEQ cells assessed as induction of intracellular calcium mobilization by aequorin bioluminescence assay; format: functional, cell-based; details: Canis lupus familiaris
# [33] = Half life in dog at 0.5 mg/kg, iv; format: ADME, organism-based, Canis lupus familiaris; set-up: dose 0.5 mg/kg, route intravenous; details: in vivo
# [34] = Plasma clearance in mouse at 1 mg/kg, iv; format: ADME, organism-based; set-up: dose 1 mg/kg, route intravenous
# [35] = molecular target: T2, Bombesin receptor subtype-3; assay: Displacement of [3H]Bag-3 from mouse BRS-3
# [36] = Half life in mouse at 1 mg/kg, iv; format: ADME, organism-based; set-up: dose 1 mg/kg, route intravenous; details: in vivo
# Neuromedin-B receptor = Neuromedin-B receptor (Homo sapiens, UniProt P28336); assay: Inhibition of human NMBR
# [37] = molecular target: T4, Nuclear receptor subfamily 1 group I member 2 (Homo sapiens, UniProt O75469)
# T4 sequence (O75469 whole entry): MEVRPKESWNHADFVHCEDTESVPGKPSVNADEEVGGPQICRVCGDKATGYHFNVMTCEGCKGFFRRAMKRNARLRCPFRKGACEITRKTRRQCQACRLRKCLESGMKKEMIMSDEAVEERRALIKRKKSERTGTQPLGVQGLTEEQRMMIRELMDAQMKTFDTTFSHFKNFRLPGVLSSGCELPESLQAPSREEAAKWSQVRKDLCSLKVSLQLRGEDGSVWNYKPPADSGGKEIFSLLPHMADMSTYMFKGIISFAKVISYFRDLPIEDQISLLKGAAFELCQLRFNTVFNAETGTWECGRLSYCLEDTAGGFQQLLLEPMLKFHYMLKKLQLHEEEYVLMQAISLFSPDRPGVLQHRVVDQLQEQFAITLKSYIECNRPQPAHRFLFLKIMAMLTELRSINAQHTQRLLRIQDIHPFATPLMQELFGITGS
# [38] = molecular target: Gastrin-releasing peptide receptor (Homo sapiens, UniProt P30550); assay: Inhibition of human GRPR
# [39] = Inhibition of human calcium channel diltiazem binding site
# [40] = Half life in rat liver microsomes
# [41] = Fraction unbound in rat plasma at 1 uM; format: ADME, cell-free
# Chain of Voltage-gated inwardly rectifying potassium channel KCNH2 (Q12809 whole entry): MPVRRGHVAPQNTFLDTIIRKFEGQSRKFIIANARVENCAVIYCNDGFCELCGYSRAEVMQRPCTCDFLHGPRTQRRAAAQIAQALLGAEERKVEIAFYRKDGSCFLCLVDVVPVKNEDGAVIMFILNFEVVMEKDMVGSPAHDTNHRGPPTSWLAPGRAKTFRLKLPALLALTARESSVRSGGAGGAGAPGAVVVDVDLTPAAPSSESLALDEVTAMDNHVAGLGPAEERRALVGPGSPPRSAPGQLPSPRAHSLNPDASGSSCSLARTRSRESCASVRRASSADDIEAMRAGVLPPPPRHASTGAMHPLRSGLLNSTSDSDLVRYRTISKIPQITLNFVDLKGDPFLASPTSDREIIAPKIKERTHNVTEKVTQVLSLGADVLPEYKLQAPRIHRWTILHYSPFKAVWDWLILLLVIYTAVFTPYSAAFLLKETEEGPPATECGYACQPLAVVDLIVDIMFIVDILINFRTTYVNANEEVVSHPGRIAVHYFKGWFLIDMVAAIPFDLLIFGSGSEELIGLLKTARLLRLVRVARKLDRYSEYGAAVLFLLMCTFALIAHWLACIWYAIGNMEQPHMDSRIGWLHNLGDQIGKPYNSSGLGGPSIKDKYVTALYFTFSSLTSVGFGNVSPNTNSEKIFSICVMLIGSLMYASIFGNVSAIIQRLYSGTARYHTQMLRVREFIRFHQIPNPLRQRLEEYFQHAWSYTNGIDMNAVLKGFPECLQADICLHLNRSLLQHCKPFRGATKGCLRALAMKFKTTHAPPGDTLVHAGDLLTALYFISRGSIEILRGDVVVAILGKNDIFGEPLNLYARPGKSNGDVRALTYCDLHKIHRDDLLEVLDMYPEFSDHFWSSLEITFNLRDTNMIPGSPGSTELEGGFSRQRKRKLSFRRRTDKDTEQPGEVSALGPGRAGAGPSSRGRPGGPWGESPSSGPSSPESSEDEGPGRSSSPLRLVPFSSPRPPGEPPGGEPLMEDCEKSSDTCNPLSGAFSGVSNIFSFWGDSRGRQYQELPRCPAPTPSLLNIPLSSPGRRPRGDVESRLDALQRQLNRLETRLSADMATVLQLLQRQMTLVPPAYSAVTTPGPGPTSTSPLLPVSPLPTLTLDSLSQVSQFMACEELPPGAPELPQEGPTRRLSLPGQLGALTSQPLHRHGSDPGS
# Chain of Neuromedin-B receptor (P28336 whole entry): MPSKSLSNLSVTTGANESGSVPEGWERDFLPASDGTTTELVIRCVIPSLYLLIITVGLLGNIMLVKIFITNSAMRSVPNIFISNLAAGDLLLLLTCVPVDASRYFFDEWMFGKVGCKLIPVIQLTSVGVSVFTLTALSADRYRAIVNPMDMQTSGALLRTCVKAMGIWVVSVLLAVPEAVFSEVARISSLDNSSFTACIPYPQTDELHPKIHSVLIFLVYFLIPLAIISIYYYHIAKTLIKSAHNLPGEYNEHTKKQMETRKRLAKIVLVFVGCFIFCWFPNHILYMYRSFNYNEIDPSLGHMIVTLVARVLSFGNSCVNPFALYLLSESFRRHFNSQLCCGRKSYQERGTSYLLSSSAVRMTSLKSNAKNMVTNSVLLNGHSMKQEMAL
# Chain of Gastrin-releasing peptide receptor (P30550 whole entry): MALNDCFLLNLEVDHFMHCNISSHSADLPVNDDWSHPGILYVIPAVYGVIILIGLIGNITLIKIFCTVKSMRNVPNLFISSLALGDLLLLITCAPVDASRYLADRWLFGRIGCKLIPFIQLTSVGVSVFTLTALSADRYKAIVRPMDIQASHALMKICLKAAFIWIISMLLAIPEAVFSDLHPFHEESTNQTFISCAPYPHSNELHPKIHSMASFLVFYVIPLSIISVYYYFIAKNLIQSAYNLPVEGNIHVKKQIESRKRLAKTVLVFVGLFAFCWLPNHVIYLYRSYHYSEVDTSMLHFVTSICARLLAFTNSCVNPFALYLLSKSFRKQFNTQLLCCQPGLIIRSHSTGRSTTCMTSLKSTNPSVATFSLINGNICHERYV
structure (smiles),measurement,setting,value
O[C@@](Cc1nc(CC2(C(F)(F)F)CC2)c[nH]1)(c1ccc(-n2cccn2)cc1)C(F)(F)F,half-life,[1],60 min
same,clearance,[2],20 mL/min/kg
same,Activity,Mus musculus [3],8%
same,IC50,[4],50 nM
same,Ki,[4],2.4 nM
same,Activity,Mus musculus [5],inactive
same,EC50,[6],2.2 nM
same,half-life,[7],42 min
same,Activity,Mus musculus [8],Active
same,EC50,[9],6.9 nM
same,Vd,[10],0.45 L/kg
same,Ki,[11],> 8000 nM
same,bioavailability,[12],18%
same,IC50,[13],1.2 nM
same,Ki,[13],0.6 nM
same,IC50,[14],6.5 nM
same,Ki,[14],9.9 nM
same,bioavailability,[15],9.6%
same,EC50,[16],21 nM
same,Vd,[17],2.2 L/kg
same,clearance,[18],5.6 mL/min/kg
same,Activity,Mus musculus [19],Active
same,Vd,[20],0.44 L/kg
same,bioavailability,[21],64%
same,Emax,[22],110%
same,clearance,[23],8.8 mL/min/kg
same,Vd,[24],0.98 L/kg
same,Emax,[25],100%
same,Activity,Mus musculus [26],inactive
same,IC50,[27],27 nM
same,Ki,[27],3.7 nM
same,bioavailability,[28],52%
same,fraction unbound at 1 µM,[29],0.01
same,EC50,[30],14 nM
same,Activity,Mus musculus [31],Active
same,EC50,[32],1.6 nM
same,half-life,[33],84 min
same,clearance,[34],32 mL/min/kg
same,IC50,[35],5.4 nM
same,Ki,[35],1.6 nM
same,half-life,[36],66 min
CC(C)(C)Cc1c[nH]c(CC(C)(O)c2ccc(-c3ccc(F)cn3)cc2)n1 (stereo not drawn),IC50,Neuromedin-B receptor,> 10000 nM
same,clearance,[2],28 mL/min/kg
same,Ki,[11],4200 nM
same,EC50,[37],> 25000 nM
same,IC50,[38],> 10000 nM
same,IC50,[27],17 nM
same,fraction unbound at 1 µM,[29],0.004
same,IC50,[39],1900 nM
same,EC50,[30],67 nM
same,half-life,[40],5 min
same,fraction unbound at 1 µM,[41],0.2
CC(O)(Cc1nc(CC2(C(F)(F)F)CC2)c[nH]1)c1ccc(-n2cccn2)cc1 (stereo not drawn),clearance,[2],52 mL/min/kg
same,clearance,[18],10 mL/min/kg
same,IC50,[27],11 nM
same,bioavailability,[28],29%
same,fraction unbound at 1 µM,[29],0.032
same,EC50,[30],14 nM
same,half-life,[33],18 min
CC(C)(C)Cc1c[nH]c(C(C)(O)Cc2ccc(-c3ccc(F)cn3)cc2)n1 (stereo not drawn),clearance,[2],14 mL/min/kg
same,Ki,[11],5900 nM
same,IC50,[27],82 nM
same,fraction unbound at 1 µM,[29],0.001
same,EC50,[30],220 nM
same,half-life,[40],1 min
same,fraction unbound at 1 µM,[41],0.2
CCC(C)(C)Cc1cnc(CCc2ccc(-c3ccc(F)cn3)cc2)[nH]1,clearance,[2],12 mL/min/kg
same,IC50,[27],16 nM
same,half-life,[40],3 min
CC(C)(C)Cc1c[nH]c(CC(C)(O)c2ccc(-n3cccn3)cc2)n1 (stereo not drawn),clearance,[2],110 mL/min/kg
same,IC50,[27],5 nM
same,fraction unbound at 1 µM,[29],0.068
same,EC50,[30],16 nM
